Here are results for two molecules from US10105305B2, “Compositions and methods for promoting skin regeneration and hair growth” (THE JOHNS HOPKINS UNIVERSITY, priority 2014, dated 2018).

One assay deals with murine skin wounds. Nature of the assay: Wound induced hair neogenesis (WIHN), regenerated hair follicles counted by CSLM. The format is in vivo, mouse. The following applies: wt C57BL/6J mice, CSLM ~WD20-24. As to the method: Wound Induced Hair Neogenesis (WIHN). All animal protocols are approved by the Johns Hopkins University Animal Care and Use Committee. C57BL/6J, B6; 129SF2/J and TLR3 null mice (B6; 129S1-Tlr3tm1Flv/J) were obtained from The Jackson Laboratory. Mixed strain (C57BL/6J×FVB/N×SJL/J) animals were provided by Dr. Jean Richa (University of Pennsylvania).
A 1 cm2 excisional full-thickness wounds to the level of skeletal muscle on the backs of 21-day old male and female mice was performed as previously described (Ito et al., 2007; Nelson et al., 2013). Numbers of regenerated hair follicles were quantified in the re-epithelialized skin by non-invasive confocal scanning laser microscopy (CSLM) as published (Fan et al., 2011). For all experiments, […] of “intervention” was injected into healing wound (under scab) or applied topically into open wound as shown in Table 1 below.
Treatments during WIHN assay. Recombinant mouse IL-6 protein (R&D Systems, Minneapolis, Minn.) and poly(I:C) (High Molecular Weight; InVivogen, San Diego, Calif.) was diluted in sterile PBS immediately prior to injection. Cucurbitacin I (Tocris Biosciences/R&D Systems, Minneapolis Minn.) was dissolved in 10% EtOH/PBS to a final concentration of 1 mg/mL prior to injection. RNase III enzyme (Life Technologies, Grand Island N.Y.) was diluted in supplied reaction buffer

Assay [1] deals with neo-natal human epidermal keratinocytes (NHEK). The assay is described as follows: qRT-PCR gene expression in cultured keratinocytes (NHEK). The format is cell-based. Conditions: NHEK. As to the method:
Cell Culture. Neo-natal human epidermal keratinocytes (Lonza, Walkersville, Md.) or lab-isolated foreskin keratinocytes were cultured in keratinocyte medium with added supplements (KGMGOLD). Treatment with recombinant IL-6 protein (50 ng/mL), cucurbitacin I (10-100 nM), poly (I:C) (20 μg/mL) and TLR3 pharmacological inhibitor (80 μM; EMD Millipore, Billerica, Mass.) was applied in basal medium containing transferrin, hydrocortisone and antibiotics for up to 24 hours. After 24 hours, treatment medium was replaced with KGM-GOLD and isolation of RNA as indicated.
Nucleofection. Nucleofection with siGENOME SMARTpoo1 Human Tap63, TLR3, REL-A and siCONTROL siRNA duplex oligonucleotides (Dharmacon-ThermoFischer Scientific) was performed in NHEK using the Amaxa 4D-Nucleofector according to manufacturer's instruction. Plated cells were treated with recombinant human IL-6 (50 ng/mL) protein or poly(I:C) (20 μg/mL) for 24 hours. Afterwards, treatment medium was removed and replaced with KGMGOLD complete medium for the duration of the experiment. Levels of appropriate gene expression were assessed by qRT-PCR using inventoried TaqMan reagents in three independent experiments.
Quantitative Real-Time PCR (qRT-PCR). Mouse skin was harvested prior to wounding and throughout wounding as described (Nelson et al., 2013). RNA was isolated from NHEK with RNeasy Mini Kit (Qiagen, Valencia, Calif.) with DNase I digestion. qRT-PCR was performed for genes of interest and 18S or ribosomal protein, large PO (RPLP0) (housekeeping genes) using inventoried TaqMan reagents. Differences in gene expression were assessed by comparative ΔΔCT values with fold change calculations.

For another assay, the system named is P-STAT3, TAp63, ΔNp63. The assay is described as follows: Western blot of wound tissue in wt mice (P-STAT3, TAp63, ΔNp63). The format is in vivo, mouse. As to the method: FIG. 2: IL-6 and pSTAT3 mediate TLR3 effects on WIHN. A) Mean fold change in IL-6 mRNA in healed scars at WD20-24 in HR vs. LR strains of mice as determined by qRT-PCR and normalized to housekeeping gene β-actin. B) Mean fold change in IL-6 mRNA after poly (I:C) addition (20 μg/mL) to NHEK for 6 hours or in strain matched wt and TLR3 KO mice 6 hours after wounding as determined by qRT-PCR and normalized to housekeeping gene RPLP0 (NHEK) or β-actin (mouse). C) Time course of IL-6 mRNA and protein expression throughout early stage wound healing in wt mice, as determined by qRT-PCR and ELISA, respectively. D) IL-6 (middle panels) and P-STAT3 (right panels; arrows) immunohistochemistry of healing scars at WD5 and WD8 in wt mice. Scale bar=50 μm. E) Cross-section histology of healed scar at WD22 after a single injection of IL-6 (25 ng) or PBS control at WD7. Regenerated hair follicles are marked with arrows. Scale bar=100 μm. F) Regenerated hair shafts (white, arrows) at ˜WD58-62 as visualized by dissecting microscope. G) WIHN in wt mice after single dose of rmIL-6 (25 ng) compared to PBS control as measured by CSLM. H) WIHN levels in wt mice after cucurbitacin I (2 mg/kg) or control as measured by CSLM. I) P-STAT 3 levels in the presence of cucurbitacin I (+) compared to control (−) in wt mice as measured by western blot and normalized to STAT3. PC=P-STAT3 positive control cell lysate. *p<0.05 by Student's T-test or Single Factor ANOVA.
FIG. 4: dsRNA and IL-6 induce keratinocyte stem cell genes. A) Mean fold change in TAp63 mRNA after IL-6 protein (50 ng/mL)+/−cucurbitacin I in NHEK as determined by qRT-PCR and normalized to housekeeping gene, RPLP0. B) TAp63 protein levels after IL-6 (25 ng) compared to PBS control in wt mice measured by western blot; normalized to β-actin. C) TAp63 and ΔNp63 protein levels after cucurbitacin I (2 mg/kg) compared to PBS control in wt mice measured by western blot; normalized to β-actin. D) Mean fold change in KRT1 mRNA with TAp63-specific or scrambled control siRNA in the presence of IL-6 (50 ng/mL) in NHEK as determined by qRT-PCR and normalized to housekeeping gene, RPLP0. E) Mean fold change in CBX4 mRNA after poly (I:C) (20 μg/mL) addition to NHEK for 24 hours as determined by qRT-PCR and normalized as in 4D. F) Mean fold change in CBX4 mRNA after IL-6 (50 ng/mL)+/−cucurbitacin I in NHEK for 24 hours as determined by qRT-PCR and normalized as in 4D. G) Mean fold change in KRT15 mRNA 72 hours after 24 hours of poly (I:C) (20 μg/mL) treatment to NHEK as determined by qRT-PCR and normalized as in 4D. H) Flow cytometry analysis of KRT15 protein expression 72 hours after 24 hours of poly (I:C) (20 μg/mL) or control to NHEK. *p<0.05 by Student's T-test or Single Factor ANOVA.

In a further assay the test system is healed murine wounds. The assay is described as follows: Histology and immunohistochemistry of healed mouse scars (epidermal thickness, cleaved caspase 3, Ki-67). Format: in vivo. As to the method:
Immunohistochemistry, Immunocytochemistry and Histology. Immunohistochemistry was performed on formalin-fixed paraffin-embedded mouse skin samples using the avidin-biotin complex method and AEC development (Vector Laboratories). Indicated antibodies were applied overnight. Sections were counterstained with hematoxylin. Images were captured at 40× magnification using a Nikon Optiphot microscope and Nikon Elements F software. Histology was assessed by H&E after IL-6 addition. The epidermal thickness from the basal layer keratinocytes to beginning of stratum corneum in three locations per healed mouse wound in multiple histology sections was measured by Image J software.

Setting [2] is: IL-6 50 ng/mL + cucurbitacin I, 24 hours.
The mark [3] stands for this setting: cucurbitacin I 2 mg/kg vs PBS, western blot.

As to `CC(C)(O)/C=C/C(=O)[C@](C)(O)[C@H]1[C@H](O)C[C@@]2(C)[C@@H]3CC=C4[C@@H](C=C(O)C(=O)C4(C)C)[C@]3(C)C(=O)C[C@]12C` [cucurbitacin I], the “decrease in the number of regenerated follicles” value in the assay with murine skin wounds (cucurbitacin I 2 mg/kg injected at WD7) was “greater than 3 fold”. In addition, the “effect on IL-6-induced TAp63 mRNA increase” value in assay [1] (IL-6 50 ng/mL + cucurbitacin I) was “reversed”. In assay [1] (setting [2]), the “effect on IL-6-induced KRT1 decrease” value is “reversed” and the “effect on induced CBX4 increase” value was “reversed”. In addition, in the assay with P-STAT3, TAp63, ΔNp63 (setting [3]), the ANp63 protein entry was “corresponding increase” and the TAp63 protein entry was “decrease”. The STAT3 phosphorylation result with P-STAT3, TAp63, ΔNp63 (cucurbitacin I 2 mg/kg, western blot normalized to STAT3) is “strongly suppressed”.

B1: IL-6: recombinant mouse IL-6 protein in mice; recombinant human IL-6 in NHEK (protein, UniProt P08505 25-211, looked up)
Interleukin-6: FPTSQVRRGDFTEDTTPNRPVYTTSQVGGLITHVLWEIVEMRKELCNGNSDCMNNDDALAENNLKLPEIQRNDGCYQTGYNQEICLLKISSGLLEYHSYLEYMKNNLKDNKKDKARVLQRDTETLIHIFNQEVKDLHKIVLPTPISNALLTDKLESQKEWLRTKTIQFILKSLEEFLKVTLRSTRQT
For B1, in the assay with murine skin wounds (single rmIL-6 25 ng injected at WD7), the “increase in the number of regenerated follicles vs vehicle” value was around 3 fold. Besides, in assay [1] (IL-6 50 ng/mL), the “TAp63 mRNA” value was “modest increase”. In assay [1] (IL-6 50 ng/mL, 24 hours), the CBX4 expression result was “increase” and the “Keratin 1 (KRT1) differentiation marker expression” value is recorded as “profound decrease”. In addition, the “apoptosis or proliferation (cleaved caspase 3, Ki-67)” value in the assay on healed murine wounds (healed murine wounds after rmIL-6 treatment) was “no alterations”. Also, the “reduction in epidermal thickness vs controls” value with healed murine wounds (healed scars, IL-6 25 ng at WD7 vs PBS) stood at 2 fold. Also, the “increase in the amount of TAp63 protein” value with P-STAT3, TAp63, ΔNp63 (IL-6 25 ng vs PBS, western blot normalized to β-actin) is 2.5 fold.
